From ChEMBL document CHEMBL1201862, “PubChem BioAssay data set” (2004) come the findings set out here.

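Briefly, cells in 96-well plates were exposed to five compound concentrations for 48 h, and endpoints were estimated by linear interpolation. GI50: concentration for 50% inhibition of growth.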 Active and inactive are the calls of the source. No stated cut-off is given here; in the data, active = GI50 up to about 1.1 µM and inactive = higher.

Experiment in all cases: NCI tumour cell line growth inhibition, 48 h
For test [1], the system named is HOP-92.
Test [2] concerns Hs-578T.
The subject of test [3] is SNB-75.
The test system of test [4] is SN12C.
For test [5], the system named is OVCAR-3.
Test [6] relates to SK-OV-3.
Test [7] relates to MDA-N.
Test [8] concerns TK-10.
Test [9] relates to SF-539.
Test [10] deals with UACC-257.
The subject of test [11] is A498.
The subject of test [12] is U-251.
Test [13] concerns HCT-116.
Test [14] has as its system NCI/ADR-RES.
Test [15] deals with SF-268.
Test [16] has as its system OVCAR-4.
The test system of test [17] is M14.
In test [18] the test system is HL-60.
The subject of test [19] is HCT-15.

As for `Cn1c(-c2ccccc2)cc(-c2cccs2)c1-c1ccsc1`, the GI50 in [1], in [2], in test [3], in test [4], in test [5] and in [6] was > 100 µM (inactive) throughout. Besides, the GI50 in test [7], in test [8], in test [9], in test [10], in [11] and in test [12] was > 100 µM (inactive) throughout. In addition, the GI50 in test [13] was 61.5 µM (inactive); in test [14], > 100 µM (inactive); in [15], > 100 µM (inactive); in [16], > 100 µM (inactive); in [17], > 100 µM (inactive); in [18], > 100 µM (inactive). Besides, the GI50 in test [19] was more than 100 µM.
Turning to `Cc1ccc(C(=O)N/N=C(\N=N\c2cccc(C)c2)c2ccc(N(CCC#N)CCC#N)cc2C)cc1`, the GI50 in test [1] was 34 µM (inactive); in [2], 51.9 µM (inactive); in test [3], 47.5 µM (inactive); in [5], 78.9 µM (inactive); in test [6] it was > 100 µM (inactive); in [7], 54.7 µM (inactive). For the same molecule, the GI50 is > 100 µM (inactive) in [8]; 64.7 µM (inactive) in [9]; 58.9 µM (inactive) in [10]; 73.3 µM (inactive) in [11]; 47 µM (inactive) in test [12]; > 100 µM (inactive) in test [14]. Further, the GI50 is 59.6 µM (inactive) in test [15]; > 100 µM (inactive) in test [16]; 89.5 µM (inactive) in test [17]; > 100 µM (inactive) in test [18]; more than 100 µM in [19].
On to `COCN1C(=O)[C@@H]2CCCN2C(=O)c2ccc(N)cc21`, for which the GI50 in [1], in test [2], in test [3], in test [4], in test [5] and in test [6] was > 100 µM (inactive) in each case. The GI50 in [7], in [8], in test [9], in test [10], in [11] and in test [12] was > 100 µM (inactive) throughout. For the same molecule, the GI50 in test [13], in test [14], in test [15], in test [16], in test [17] and in test [18] was > 100 µM (inactive) each time. Further, the GI50 in test [19] is more than 100 µM.
Consider `Cc1csc(-c2cn(C)c3c2C(=O)C(=N)C=C3O)n1`, for which the GI50 in [1] was > 100 µM (inactive); in test [2], 3.86 µM (inactive); in test [3], 1.8 µM (inactive); in test [4], 39.1 µM (inactive); in test [5] it was 6.41 µM (inactive); in test [6], 21.2 µM (inactive). Moreover, the GI50 was 14.1 µM (inactive) in test [7]; 46.1 µM (inactive) in test [8]; 5.01 µM (inactive) in test [9]; 4.26 µM (inactive) in [10]; 12.2 µM (inactive) in test [11]; 37.1 µM (inactive) in test [12]. Also, the GI50 in test [13] was 8.3 µM (inactive); in [14], 9.98 µM (inactive); in [15] it was 15.8 µM (inactive); in test [16] it was > 100 µM (inactive); in test [17], 3.74 µM (inactive); in test [18], 1.58 µM (inactive). In test [19], the GI50 was 6.59 µM.
